Assay results taken from ChEMBL document CHEMBL5518178 (Eur J Med Chem, 2024).
pIC50: −log10 of the molar value.

Legend:
MGC-803 [1] = test: Antiproliferative activity against human MGC-803 cells assessed as inhibition of cell growth incubated for 48 hrs by MTT assay; assay type: functional, cell-based; conditions: MGC-803, 48 h
KYSE-30 = test: Antiproliferative activity against human KYSE-30 cells assessed as inhibition of cell growth incubated for 48 hrs by MTT assay; assay type: functional, cell-based; conditions: KYSE-30, 48 h
HCT-116 = test: Antiproliferative activity against human HCT-116 cells assessed as inhibition of cell growth incubated for 48 hrs by MTT assay; assay type: functional, cell-based; conditions: HCT-116, 48 h
[2] = Toxicity in BALB/c-nude mouse xenografted with human MGC-803 cells assessed as change in body weight at 30 mg/kg/day, ip administered for 18 days; assay type: organism-based; conditions: in vivo, 432 h, time 18 day
MGC-803 [3] = test: Antitumor activity against human MGC-803 cells xenografted in BALB/c-nude mouse assessed as tumor weight at 30 mg/kg/day, ip administered for 18 days (reference value: 0.656 g); assay type: functional; conditions: time 18 day
[4] = Toxicity in BALB/c-nude mouse xenografted with human MGC-803 cells assessed as abnormal behaviour at 30 mg/kg/day, ip administered for 18 days; assay type: organism-based; conditions: in vivo, 432 h, time 18 day
MGC-803 [5] = test: Antitumor activity against human MGC-803 cells xenografted in BALB/c-nude mouse assessed as tumor growth rate at 30 mg/kg/day, ip administered for 18 days relative to control; assay type: functional; conditions: time 18 day
MGC-803 [6] = test: Antitumor activity against human MGC-803 cells xenografted in BALB/c-nude mouse assessed as tumor growth inhibition at 30 mg/kg/day, ip administered for 18 days relative to control; assay type: functional; conditions: MGC-803, 432 h, time 18 day, read-out: TGI

| pIC50 (MGC-803 [1]) | pIC50 (HCT-116) | Structure (SMILES) | pIC50 (KYSE-30) | Activity [2] | Activity (MGC-803 [3]) | Activity [4] | Activity (MGC-803 [5]) | inhibition in vivo at 30 mg/kg/day (MGC-803 [6]) |
| --- | --- | --- | --- | --- | --- | --- | --- | --- |
| 4.74 | 4.73 | COc1ccc(N2CCN(c3cc(=O)oc4ccccc34)CC2)cc1 | < 4.70 |  |  |  |  |  |
| 6.38 | 6.35 | Cc1ccc2c(c1)CCCN2c1cc(=O)oc2ccccc12 | 6.40 |  |  |  |  |  |
| 5.38 | 5.25 | COc1ccc2c(c1)CCCN2C(=O)c1cc2ccccc2oc1=O | 5.14 |  |  |  |  |  |
| 5.68 | 5.64 | Cc1ccc2c(c1)CCN2c1cc(=O)oc2ccccc12 | 5.71 |  |  |  |  |  |
|  |  | COc1ccc(/C=C\c2cc(OC)c(OC)c(OC)c2)cc1O [COMBRETASTATIN A4] |  | Non-Toxic | 0.272 g | Non-Toxic | 38% | 58.5% |
| 5.92 | 5.83 | O=c1cc(N2CCCc3cc(Br)ccc32)c2ccccc2o1 | 5.82 |  |  |  |  |  |
| < 4.70 | < 4.70 | COC1CCN(c2cc(=O)oc3ccccc23)CC1 | < 4.70 |  |  |  |  |  |
| < 4.70 | < 4.70 | O=c1cc(N2CCCC2)c2ccccc2o1 | < 4.70 |  |  |  |  |  |
| 7.92 | 7.42 | COc1ccc2c(c1)NC(=O)CN2c1cc(=O)oc2ccccc12 | 7.47 |  |  |  |  |  |
| 5.13 | 5.03 | COc1ccc2c(c1)CCN2C(=O)c1cc2ccccc2oc1=O | 5.04 |  |  |  |  |  |
| < 4.70 | < 4.70 | CC1CCN(c2cc(=O)oc3ccccc23)CC1 | < 4.70 |  |  |  |  |  |
| 4.88 | 4.85 | O=C(c1cc2ccccc2oc1=O)N1CCc2cc(Br)ccc21 | 4.77 |  |  |  |  |  |
| 6.92 | 6.80 | COc1ccc2c(c1)CCN2c1cc(=O)oc2ccccc12 | 6.82 |  |  |  |  |  |
| 5.00 | 4.92 | O=C(c1cc2ccccc2oc1=O)N1CCCc2cc(Cl)ccc21 | 4.88 |  |  |  |  |  |
| 6.06 | 6.04 | O=c1cc(N2CCCc3cc(O)ccc32)c2ccccc2o1 | 6.06 |  |  |  |  |  |
| 5.89 | 5.53 | O=c1cc(N2CCc3ccccc32)c2ccccc2o1 | 5.66 |  |  |  |  |  |
| 6.17 | 6.14 | O=c1cc(N2CCCc3ccccc32)c2ccccc2o1 | 6.17 |  |  |  |  |  |
| < 4.70 | < 4.70 | O=c1cc(N2CCOCC2)c2ccccc2o1 | < 4.70 |  |  |  |  |  |

| Structure (SMILES) | pIC50 (MGC-803 [1]) | pIC50 (HCT-116) | pIC50 (KYSE-30) | Activity [2] | Activity (MGC-803 [3]) | Activity [4] | Activity (MGC-803 [5]) | inhibition in vivo at 30 mg/kg/day (MGC-803 [6]) |
| --- | --- | --- | --- | --- | --- | --- | --- | --- |
| CN1CCN(c2cc(=O)oc3ccccc23)CC1 | < 4.70 | < 4.70 | < 4.70 |  |  |  |  |  |
| COc1cc2c(c(OC)c1OC)-c1ccc(OC)c(=O)cc1[C@@H](NC(C)=O)CC2 [COLCHICINE] | 7.39 | 7.26 | 7.17 |  |  |  |  |  |
